From patent publication US20160176859A1, “High-Throughput Assay for Identifying Small Molecules that Modulate AMP-activated Protein Kinase (AMPK)” (North Carolina Central University, priority 2013, published 2016)
Blank lines part the entries; values can stand above or below the compound they belong to.

What was measured:
purified p-AMPK = biological target: T1, purified p-AMPK (Rattus norvegicus, UniProt P54645+P80385); assay: Kinase assay with purified p-AMPK and GST-ACC peptide; format: biochemical; conditions: compared to DMSO control
T1 construct: Full-length AMPK intended for use in phosphatase and kinase assays was purified, mixed with GST-CaMKKβ; made in house; host or cells: Rosetta cells (E. coli); phosphorylated in vitro with GST-CaMKKβ, which was then removed on glutathione resin
T1 sequence (P54645 with tags, fused parts or gaps limits assumed): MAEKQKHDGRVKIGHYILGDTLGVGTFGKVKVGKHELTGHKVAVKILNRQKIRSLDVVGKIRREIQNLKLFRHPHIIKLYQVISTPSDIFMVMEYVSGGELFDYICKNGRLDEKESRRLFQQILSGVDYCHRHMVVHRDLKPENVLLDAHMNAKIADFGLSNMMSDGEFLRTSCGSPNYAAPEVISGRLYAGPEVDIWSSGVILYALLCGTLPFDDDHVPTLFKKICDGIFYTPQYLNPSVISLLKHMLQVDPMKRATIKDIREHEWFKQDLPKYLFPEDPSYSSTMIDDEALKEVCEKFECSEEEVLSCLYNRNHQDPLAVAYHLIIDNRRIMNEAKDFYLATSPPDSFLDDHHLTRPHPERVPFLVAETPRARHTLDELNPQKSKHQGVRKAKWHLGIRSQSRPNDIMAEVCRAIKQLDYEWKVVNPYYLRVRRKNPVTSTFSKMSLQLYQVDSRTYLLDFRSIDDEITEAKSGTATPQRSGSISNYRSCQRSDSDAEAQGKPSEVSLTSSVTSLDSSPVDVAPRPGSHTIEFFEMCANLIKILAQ
T1 sequence (P80386 whole entry partner): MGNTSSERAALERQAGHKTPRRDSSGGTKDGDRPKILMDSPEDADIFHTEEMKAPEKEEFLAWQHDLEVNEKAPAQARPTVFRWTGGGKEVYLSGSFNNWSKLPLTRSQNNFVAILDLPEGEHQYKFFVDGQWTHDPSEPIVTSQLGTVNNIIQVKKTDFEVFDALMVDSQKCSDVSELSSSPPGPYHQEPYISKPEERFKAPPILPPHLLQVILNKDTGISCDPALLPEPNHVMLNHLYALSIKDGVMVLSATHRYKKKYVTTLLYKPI
T1 sequence (P80385 whole entry): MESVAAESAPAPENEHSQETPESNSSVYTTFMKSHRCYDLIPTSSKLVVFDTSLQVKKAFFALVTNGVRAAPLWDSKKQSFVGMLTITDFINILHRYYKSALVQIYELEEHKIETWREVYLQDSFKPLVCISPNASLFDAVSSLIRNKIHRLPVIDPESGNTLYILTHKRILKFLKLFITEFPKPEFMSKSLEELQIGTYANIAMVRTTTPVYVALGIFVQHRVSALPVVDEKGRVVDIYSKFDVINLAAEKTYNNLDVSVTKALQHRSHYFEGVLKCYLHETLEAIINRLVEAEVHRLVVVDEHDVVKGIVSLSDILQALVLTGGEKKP
Experimental: Kinase assays. Assay conditions were adapted from published methods (17). The final assay buffer was comprised of 40 mM Hepes (pH 7.4) 5 mM MgCl2, 200 μM ATP, 75 mM NaCl, 0.01% Triton X-100, 1 mM DTT, and 0.45% DMSO (vehicle). Because some analogs had poor solubility at high concentrations, all analogs and controls were diluted in assay buffer and centrifuged (1 min, 5000 rpm, 4° C.) to remove insoluble matter. GST-ACC peptide and p-AMPK were thawed, diluted in assay buffer, and then added to the supernatant at final concentrations of 900 and 0.1 ng/μL, respectively. Kinase assays were assembled on ice; reactions were allowed to proceed for 30 minutes at room temperature. Reactions were stopped by the addition of loading buffer and 48 mM DTT followed promptly by freezing at −20° C.
(§1) Western analyses. Protein samples were boiled for 15 minutes in loading buffer and DTT prior to SDS-PAGE. Blots for protein-based assays were sequentially incubated with the following: 5% BSA in 1× TBS (1 hr, 22° C.), 1:1000 rabbit anti-human p-AMPK-α antibody or p-ACC antibody (2 hr, 22° C.), and 1:10,000 donkey anti-rabbit secondary antibody (1 hr, 22° C.). Blots for phosphatase assays were probed a second time using 1:100 mouse anti-human total AMPK antibody (overnight, 4° C.; from UNC Antibody Core Facility) followed by 1:10,000 donkey anti-mouse secondary antibody (1 hr, 22° C.). Blots for clarified cell lysates were sequentially probed for p-AMPK (1:500 dilution, overnight at 4° C. or 4 hours at 22° C.), total ACC (1:1000 dilution, overnight at 4° C. or 4 hours at 22° C.), and tubulin (1:10,000 dilution, 1 hr, 22° C.); a parallel set of blots were probed for p-ACC (1:500 dilution, overnight at 4° C. or 4 hours at 22° C.), total AMPK (1:1000 dilution, overnight at 4° C. or 4 hours at 22° C.), and tubulin (1:10,000 dilution, 1 hr, 22° C.). Because phosphorylated and total protein were imaged on separate membranes, the signals were normalized to the internal tubulin signal prior to calculating the ratio of phosphorylated to total protein. Scanning and imaging were completed according to published methods.

[1] = test system: p-ACC levels in HEK cells; assay: Cell-intact assay, p-ACC levels in HEK cells; format: cell-based, human
Experimental: Cell-intact assays. HEK cells were grown in DMEM with 10% FBS and 1% penicillin/streptomycin at 37° C. A subset of plates was serum-starved for 5 hours on the day of the experiment. After 5 hours of serum-starvation, cells were treated with either controls (0.2% DMSO, A-769662, or Compound C) or small molecules in the absence of serum for an additional hour prior to lysis. Another subset of plates was serum-starved for 6 hours and then treated with either controls or small molecules for 1 hour in the presence of 10% FBS. A time course of both AMPK and ACC phosphorylation in HEK cells during serum starvation has already been published (Pirkmajer S, Chibalin A V. Serum starvation: caveat emptor. American journal of physiology Cell physiology. 2011 August; 301(2):C272-9. PubMed PMID: 2161361).
After incubating in the presence of drugs for one hour, cells were washed three times with ice-cold PBS and lysed according to published methods (Kazgan N, Williams T, Forsberg L J, Brenman J E. Identification of a nuclear export signal in the catalytic subunit of AMP-activated protein kinase. Molecular biology of the cell. 2010 Oct. 1; 21(19):3433-42. PubMed PMID: 20685962. Pubmed Central PMCID: 2947478). Lysates were centrifuged at 16,000 g (10 minutes, 4° C.). Clarified supernatant (30 μL) was then transferred to 10 μL 4X loading buffer and 2 μL 1 M DTT. Samples were immediately frozen at −20° C. The concentration of protein in diluted clarified supernatant was calculated using a DC protein assay kit (BioRad) prior to western analyses.
as §1

[2] = biological target: T2, full-length AMPK (rat His-α1, β1, γ1) (Rattus norvegicus, UniProt P54645+P80385); assay: MANT-ADP fluorescence displacement (binding) assay, full-length AMPK
T2 construct: Tricistronic vectors encoding full-length AMPK (rat His-α1, β1, γ1); made in house; host or cells: Rosetta cells (E. coli), tricistronic vector, gift of Dr. Uwe Schlattner
T2 sequence (P54645 with tags, fused parts or gaps limits assumed): as the sequence (P54645 with tags, fused parts or gaps limits assumed) above
T2 sequence (P80386 whole entry partner): as the sequence (P80386 whole entry partner) above
T2 sequence (P80385 whole entry): as the sequence (P80385 whole entry) above
Experimental: (§2) Except where otherwise noted, assays were performed with the following conditions: 0.5 μM full-length AMPK (130 kDa) or 0.5 μM regulatory fragment (66.7 kDa), 0.1 μM MANT-ADP, 10 mM Tris-HCl (pH 8), 0.45% DMSO (vehicle and negative control), and 5 μM ADP (positive control). Automated assays were assembled in two steps. First, a NanoQuot (BioTek) was used to dispense 11 μL of master mix (protein, MANT-ADP, and Tris-HCl) per well in black, low volume 384-well plates (Corning-3676). Next, a Biomek NX workstation (Beckman-Coulter, Brea, Calif.) equipped with pintools (VP Scientific, San Diego Calif.) was used to transfer 50 nL of controls (columns 1, 2, 23, and 24) and small molecules (4.5 μM final). Controls and library molecules were transferred from Axygen 384-well rigid PCR plates (Cat no. 321-67-051) at 221× concentration for single-concentration screening. Plates were shaken for 10 minutes prior to reading.
(§3) Fluorescence emission spectra of MANT-ADP were collected using a PerkinElmer EnSpire plate reader with an excitation wavelength of 360 nm. Background fluorescence from protein was subtracted from the raw data prior to plotting MANT-ADP's fluorescence in the presence of protein. Fluorescence detection for assay development and screening was performed on either a BMG Pherastar Plus (360/10 excitation and 460/10 emission filters) or a PerkinElmer EnVision (355/40 excitation and 460/25 emission filters), depending on equipment availability. Relative fluorescence units (RFUs) were recorded at room temperature.
(§4) ScreenAble (ScreenAble Solutions, Chapel Hill, N.C.) high-throughput screening software was utilized for merging screening data and chemical structure, for statistical design of experiments, and hit selection. GraphPad Prism was used for non-linear regression analysis of dose response data.
(§5) Binding assays. Except where otherwise noted, assay assembly and data analysis were completed according to published methods. Binding assays were manually assembled, with the exception of the similarity screen. Automated assembly of the similarity screen was completed according to published methods. Analogs were cherry-picked from a 10 mM Asinex small molecule library and a 0.5 mM kinase focused library, which has been described previously (4). Molecules were screened at a final concentration of 45 and 2.3 μM, respectively.

[3] = biological target: T3, AMPK regulatory fragment (rat His-α1, 396-548; human β2, 187-272; rat γ1) (Rattus norvegicus, UniProt P80385); assay: MANT-ADP fluorescence displacement (binding) assay, AMPK regulatory fragment; conditions: inhibition of MANT-ADP fluorescence
T3 construct: rat His-α1, 396-548; human β2, 187-272; rat γ1; made in house; host or cells: Rosetta cells (E. coli), tricistronic vector, gift of Dr. Steve Gamblin
T3 sequence (P54645 407-559 partner limits assumed): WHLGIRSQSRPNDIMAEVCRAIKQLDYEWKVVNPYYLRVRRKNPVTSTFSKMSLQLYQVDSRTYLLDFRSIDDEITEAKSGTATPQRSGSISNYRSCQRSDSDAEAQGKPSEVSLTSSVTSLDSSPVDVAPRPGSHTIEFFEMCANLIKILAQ
T3 sequence (O43741 187-272 partner limits assumed): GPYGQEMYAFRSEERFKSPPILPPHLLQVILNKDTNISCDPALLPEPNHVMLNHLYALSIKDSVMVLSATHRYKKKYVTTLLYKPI
T3 sequence (P80385 whole entry, the tested form may be a part): as the sequence (P80385 whole entry) above
Experimental: as §2, §3, §4, §5

- activity of purified p-AMPK (phosphorylation of GST-ACC peptide), dose response (purified p-AMPK): inhibits substrate phosphorylation
SMILES: c1cc(-c2cnn3cc(-c4ccc(OCCN5CCCCC5)cc4)cnc23)ccn1 [Compound C, reference compound]
- p-ACC levels, serum-treated HEK cells ([1]; 10% serum): modest decreases
- p-ACC levels, serum-starved HEK cells ([1]; serum-starved, 1 hour treatment): best inhibition

- Hill slope ([2]; full-length AMPK, inhibition of MANT-ADP fluorescence): 1.1
- IC50 ([2]; full-length AMPK, inhibition of MANT-ADP fluorescence, read-out: IC50): 0.3 µM
- Hill slope (data in parentheses) [3]: 2.6
- IC50 ([3]; read-out: IC50 (data in parentheses)): 0.2 µM
SMILES: COc1cc(C(=O)/C=C/c2cc(O)c(O)c(Cl)c2)cc(OC)c1OC [Example Z64358107]

- inhibition of the protein-bound signal of MANT-ADP in the triplicate similarity screen ([2]; final concentration 45 μM): reproducibly inhibited
SMILES: COC(=O)CN1C(=O)/C(=C/c2ccc(OC)cc2)SC1=S [BAS 00502779]
